The target in series [1] is T1, 5HT1A (Homo sapiens, UniProt P08908).
T1 construct: expressed in transfected cells; host or cells: CHO cells (Chinese hamster)
T1 sequence (P08908 1-422): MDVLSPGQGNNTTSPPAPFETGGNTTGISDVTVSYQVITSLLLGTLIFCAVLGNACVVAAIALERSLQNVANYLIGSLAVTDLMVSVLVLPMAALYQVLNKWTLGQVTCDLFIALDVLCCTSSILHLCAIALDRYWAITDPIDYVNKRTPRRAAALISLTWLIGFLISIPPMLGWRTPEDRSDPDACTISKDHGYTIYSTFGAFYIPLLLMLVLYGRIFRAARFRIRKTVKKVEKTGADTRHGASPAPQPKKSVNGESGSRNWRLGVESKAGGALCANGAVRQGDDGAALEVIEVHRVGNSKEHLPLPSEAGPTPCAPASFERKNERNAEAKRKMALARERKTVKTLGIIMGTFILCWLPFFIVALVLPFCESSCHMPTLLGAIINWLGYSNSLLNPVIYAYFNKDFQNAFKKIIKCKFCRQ
Nature of the series: GTPγS assay for 5HT1A agonist activity. In kind it is biochemical. To be noted: bound [35S]GTPγS relative to serotonin response. As to the method:
Selected compounds were tested for 5HT1A agonist activity using a GTPγS assay. GTPγS binding for 5HT1A was determined according to the procedures of Adlersberg et al. J Neurosci. Res. 2000, 61(6): 674-685. Compounds were incubated for 30 minutes at 30° C. in 20 mM HEPES, pH7.4, 100 mM NaCl, 10 mM MgCl2, 1 mM DTT, 1 mM EDTA with human CHO cells Chinese hamster. Quantitation of bound [^35S] GTPγS was determined with agonist significance criteria of >50% increase in bound [^35S] GTPγS relative to serotonin response.
On the technique in general: GTPγS resists hydrolysis and so accumulates on activated G proteins.

Series [2] is described as follows: Metabolic stability in human liver microsomes. In kind it is in vitro ADME. The note with it: pH 7.4, 1 μM compound, 0.3 mg/mL microsomes, pH7.4, 37° C. As to the method:
Metabolic stability of selected compounds in human liver microsomes was assessed using the procedure described by Kuhnz and Gieschen, Drug Metab. Dispos. 1998, 26: 1120-1127. Compounds (1 μM) were measured by LC/MS following 0 and 60 minute incubations with human liver microsomes (0.3 mg/mL) at pH7.4 and 37° C.
(Liver microsomes are a subcellular fraction often used to study metabolism.)

Series [3] can be described thus: Metabolic stability in rat liver microsomes. In kind it is in vitro ADME. To be noted: pH 7.4.
Series [4] deals with α1-adrenergic receptor. As to the kind of experiment: α1-Adrenergic Receptor Assay, [3H]Prazosin competition binding. Also noted: species or system rat. The note with it: selectivity 5HT1A over α1-adrenergic. As to the method:
The determination of binding of the ligand with α1-adrenergic receptor was carried out according to the procedures described in Greengrass P and Bremner R. Eur. J. Pharmacol. 1979, 55: 323-326.
For competition binding, radiolabelled 0.25 nM [3H]Prazosin was incubated for 30 minutes at 25° C. with al transfected wisatar rat cerebral cortex cell membranes in 50 mM Tris-HCl, pH7.4, 0.1% Ascorbic acid, 10 mM Pargyline and increasing concentrations of test compound. The non specific ligand used was 0.1 uM Prazosin. Significance criteria was 50% of max stimulation or inhibition.

The target in series [5] is T2, dopamine D2L receptor (Homo sapiens, UniProt P14416).
T2 construct: expressed in transfected cells; host or cells: CHO cells
T2 sequence (P14416 whole entry): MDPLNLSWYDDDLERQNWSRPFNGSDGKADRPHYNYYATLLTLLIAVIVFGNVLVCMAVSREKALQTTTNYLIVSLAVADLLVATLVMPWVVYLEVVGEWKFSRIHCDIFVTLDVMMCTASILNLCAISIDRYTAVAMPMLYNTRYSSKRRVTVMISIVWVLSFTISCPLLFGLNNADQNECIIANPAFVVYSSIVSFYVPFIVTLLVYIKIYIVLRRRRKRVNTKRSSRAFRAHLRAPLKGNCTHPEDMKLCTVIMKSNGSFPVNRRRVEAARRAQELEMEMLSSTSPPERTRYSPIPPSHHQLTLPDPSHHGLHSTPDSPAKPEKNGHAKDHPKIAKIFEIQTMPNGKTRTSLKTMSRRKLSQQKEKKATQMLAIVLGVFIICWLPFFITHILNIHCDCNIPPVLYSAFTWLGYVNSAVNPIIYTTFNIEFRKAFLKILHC
As to the kind of experiment: Dopamine D2 Receptor Assay, [3H]Spiperone competition binding. To be noted: selectivity 5HT1A over dopamine D2. As to the method: The determination of binding of the ligand with dopamine D2L receptor was carried out according to the procedures described in Grandy et al. Proc. Natl. Acad. Sci. 1989, 86: 9762-9766.
For competition binding, radiolabelled 0.16 nM [3H]Spiperone was incubated for 120 minutes at 25° C. with D2L transfected human recombinant CHO cells in 50 mM Tris-HCl, pH7.4, 150 mM NaCl, 1.4 mM Ascorbic acid, 0.001% BSA and increasing concentrations of test compound. The non-specific ligand used was […] haloperidol. Significance criteria was 50% of max stimulation or inhibition.

What is called EC50 is the concentration needed to bring the measured effect to its halfway point. A higher EC50 goes with a need for much substance. As for `COc1ccccc1N1CCN(CCc2n[nH]c(=O)n2C2CCCCCCC2)CC1` [Example 10, 4-Cyclooctyl-5-{2-[4-(2-methoxyphenyl)piperazino]ethyl}-2,4-dihydro-3H-1,2,4-triazol-3-one], in series [1], the EC50 is less than 200 nM.

One may read the half-life as the time needed for the level to fall by half in the phase considered. With `COc1ccccc1N1CCN(CCc2n[nH]c(=O)n2Cc2ccccc2)CC1` [Example 13, 4-Benzyl-5-{2-[4-(2-methoxy-phenyl)-piperazin-1-yl]-ethyl}-2,4-dihydro-[1,2,4]triazol-3-one], the half-life at 1 μM in series [2] and in series [3] was not below 1 h throughout.

As to `COc1ccccc1N1CCN(CCc2n[nH]c(=O)n2CC2CCCCC2)CC1` [Example 17, 4-(Cyclohexylmethyl)-5-{2-[4-(2-methoxyphenyl)piperazino]ethyl}-2,4-dihydro-3H-1,2,4-triazol-3-one], the half-life at 1 μM in series [2] and in series [3] was not below 1 h each time.

Consider `COc1ccccc1N1CCN(CCc2n[nH]c(=O)n2Cc2ccc(Cl)c(Cl)c2)CC1` [Example 21, 4-(3,4-Dichloro-benzyl)-5-{2-[4-(2-methoxy-phenyl)-piperazin-1-yl]-ethyl}-2,4-dihydro-[1,2,4]triazol-3-one], for which, in series [1], the EC50 was less than 200 nM.

For `COc1ccccc1N1CCN(CCc2n[nH]c(=O)n2Cc2cccc(F)c2)CC1` [Example 26, 4-(3-Fluoro-benzyl)-5-{2-[4-(2-methoxy-phenyl)-piperazin-1-yl]-ethyl}-2,4-dihydro-[1,2,4]triazol-3-one], the half-life at 1 μM in series [2] and in series [3] was not below 1 h in each case.

With `COc1ccccc1N1CCN(CCc2n[nH]c(=O)n2C(c2ccccc2)c2ccccc2)CC1` [Example 28, 4-Benzhydryl-5-{2-[4-(2-methoxy-phenyl)-piperazin-1-yl]-ethyl}-2,4-dihydro-[1,2,4]triazol-3-one], the EC50 in series [1] was less than 200 nM.

Compound `COc1ccccc1N1CCN(CCc2n[nH]c(=O)n2-c2ccc(Cl)c(Cl)c2)CC1` [Example 33, 4-(3,4-Dichloro-phenyl)-5-{2-[4-(2-methoxy-phenyl)-piperazin-1-yl]-ethyl}-2,4-dihydro-[1,2,4]triazol-3-one] showed a 50% effective concentration (EC50) in series [1] of less than 200 nM.

Consider `COc1ccccc1N1CCN(C(C)Cc2nn(C)c(=O)n2CC2CCCCC2)CC1` (stereo not drawn) [Example 37, 4-(Cyclohexylmethyl)-5-{2-[4-(2-methoxyphenyl)piperazin-1-yl]propyl}-2-methyl-2,4-dihydro-3H-1,2,4-triazol-3-one], for which, in series [4], the “affinity for 5HT1A relative to affinity for α1-adrenergic receptors” value is listed as “more than fifty times greater”. In series [5], the “affinity for 5HT1A relative to affinity for dopamine D2 receptors” value is “more than fifty times greater”.

Consider `CC(=O)Nc1cccc(N2CCN(CCc3n[nH]c(=O)n3CC3CCCCC3)CC2)c1` [Example 38, N-[3-(4-{2-[4-(Cyclohexylmethyl)-5-oxo-4,5-dihydro-1H-1,2,4-triazol-3-yl]ethyl}piperazin-1-yl)phenyl]acetamide], for which the “affinity for 5HT1A relative to affinity for α1-adrenergic receptors” value in series [4] was “more than fifty times greater”. The “affinity for 5HT1A relative to affinity for dopamine D2 receptors” value in series [5] is reported as “more than fifty times greater”.

`CC(=O)Nc1cccc(N2CCN(CCCc3n[nH]c(=O)n3CC3CCCCC3)CC2)c1` [Example 39, N-(3-{4-[3-(4-Cyclohexylmethyl-5-oxo-4,5-dihydro-1H-[1,2,4]triazol-3-yl)-propyl]-piperazin-1-yl}-phenyl)-acetamide]: in series [4], the “affinity for 5HT1A relative to affinity for α1-adrenergic receptors” value is on record as “more than fifty times greater”.

As for `CC(=O)Nc1cccc(N2CCN(CCc3nn(C)c(=O)n3CC3CCCCC3)CC2)c1` [Example 41, N-[3-(4-{2-[4-(Cyclohexylmethyl)-1-methyl-5-oxo-4,5-dihydro-1H-1,2,4-triazol-3-yl]ethyl}piperazino)phenyl]acetamide], the “affinity for 5HT1A relative to affinity for dopamine D2 receptors” value in series [5] is given as “more than a thousand times greater”. Besides, the EC50 in series [1] was less than 200 nM.

In turn, `COc1ccccc1N1CCN(CCc2nn(C)c(=O)n2CC2CCCCC2)CC1` [Example 42, 4-(Cyclohexylmethyl)-5-{2-[4-(2-methoxyphenyl)piperazino]ethyl}-2-methyl-2,4-dihydro-3H-1,2,4-triazol-3-one] yielded an EC50 in series [1] of less than 200 nM.

The values are drawn from patent publication US8222254B2, “1, 2, 4-triazole derivatives as serotonergic modulators” (Prosarix Limited, priority 2007, dated 2012).
